Laboratory results published in patent publication US8110703B2, “Retinoid derivative and pharmaceutical composition and use thereof” (Anhui Medical University, priority 2008, dated 2012).
“And” between values parts separate entries of the source, which are not always exact repeats. Equal entries are not always repeated. Marks after values point to notes of the source that are not given here.

Experiments:
Format in all cases: cell-based
liver cancer HepG2 cells = experiment: MTT cell growth and proliferation experiment, HepG2; design: key to Inhibition Rate: (control OD570 − test OD570)/control OD570, as fraction; conditions: for Inhibition Rate: fraction
Protocol: (§1) 1.1 Reagents 12 retinoic acid derivatives with the final concentrations of 1 ug/ml, 5 ug/ml and 10 ug/ml are synthesized by the Pharmaceutical College of Anhui Medical University using DMSO and anhydrous ethanol, separately packaged for storage at −20° C. and kept out of the light when used, and the final concentration of DMSO is less than 0.1%. MTT is purchased from Sigma Corp. The Coulter DNA detection kit is presented by the Central Lab of Anhui Provincial Hospital. AFP and γ-GT are provided by the Clinical Lab of No. 105 Hospital of PLA. Apoptosis-Hoechst staining kit is purchased from Beyotime Company.
(§2) 1.2 Cell Culture A549, and HpeG2 cells are stored by our lab. Cell growth condition: DMEM (from GIBICO Company) culture solution is added with 10% of calf serum (purchased from the Hangzhou Sijiqing Biological Engineering Material Co., Ltd.) to culture in a cell culture incubator (37° C., 5% CO2) with saturated humidity.
(§3) 1.3 Cell Growth and Proliferation Experiments MTT process is used. Cells in the logarithmic phase are picked and seeded on a 96-hole culture board with a cell concentration of 5×10^7/L. Each hole of the board is 200 ul. The next day after the adherence, the original solution is discarded, and the culture solution is added. The cells are divided into 1 ug/ml retinoic acid derivative groups, 5 ug/ml retinoic acid derivative groups, 10 ug/ml retinoic acid derivative groups, blank control groups, cell control groups, solvent control groups (1‰ DMSO and anhydrous ethanol) (17 in total) according to the concentrations thereof, incubated for 3d, added with MTT (5 g/L) of 20 ul/hole for incubation at 37° C. for 4 h. The original solution is carefully discarded and dried, and DMSO of 20 ul/hole is added to dissolve crystals, followed by vibrating for 10 min and determining the OD value at 570 nm. Each concentration is corresponding to 5 holes, and each group calculates the average of 3 experiments to calculate the inhibition rate to the cell growth according to the optical density (OD) average of each hole in each group and the following equation: inhibition rate %=(control hole OD570−experimental hole OD570)/control hole OD5700*100%. The process above is repeated for three times. The second experiment takes the maximum concentration (10 […]) for culture respectively for 1, 2, 3 and 7 days and repeat for three times.

A549 lung cancer cells = experiment: MTT cell growth and proliferation experiment, A549; design: key to Inhibition Rate: (control OD570 − test OD570)/control OD570, as fraction
Protocol: as §1, §2, §3

A549 cells [1] = experiment: Cell cycle and apoptosis by flow cytometry, A549; conditions: A549, 10 μg/ml, 3 days, PI flow cytometry
Protocol: 1.4 Detection of Cell Cycle and Apoptosis by Flow Cytometry A549 cells in the logarithmic phase are collected, regulated with the concentrations thereof to 8×10^7/L, inoculated in a 6-hole board, cultured in an incubator (37° C. and 5% CO2). After the cells are adhered, the culture solution is discarded, and a culture solution having drugs with the corresponding concentrations is added and divided into 10 μg/ml drug groups, 10 μg/ml fenretinide groups, cell control groups, solvent control groups (1‰ DMSO and anhydrous ethanol) (11 in total). After 3 days, each group of cells is normally digested, collected, blown into single cell suspension, washed by cold PBS twice, and re-suspend by 10 μl PBS. Fixing and member breaking agents and a PI staining solution are added according to the Coulter DNA detection kit and reacted with one another at the room temperature and out of light for 30 min for machine detection. Each sample detects 10000 cells and repeats for three times, and the data are analyzed by Analysis software for the ratio during the G0-G1, S and G2-M periods and the ratio of apoptotic cells.

A549 cells [2] = experiment: Differentiation index: CEA secretory volume of A549 cells; conditions: A549 culture supernatant, 10 ug/ml, 3 d, DMSO
Protocol: 1.6 Detection of Differentiation Index The cultured A549 cells are randomly divided into 6 10 μg/ml drug groups, cell control groups, solvent control groups (DMSO and ethanol) and 10 μg/ml fenretinide control groups (11 in total). The control groups and drug groups are cultured for 3 days to collect respective 3 tubes of cell culture solutions which are centrifugated at a speed of 4000 r/min for 5 min to take the supernatant and detect the CEA content of the kit by using enzyme kinetics and CEA detection.

HepG2 cells [3] = experiment: AFP secretory volume of HepG2 cells; conditions: for AFP: HepG2 cells
HepG2 cells [4] = experiment: γ-GT specific activity of HepG2 cells
HepG2 cells [5] = experiment: Cell cycle and apoptosis by flow cytometry, HepG2; conditions: for Apoptosis Rate (%) / G0-G1 (%) / G2-M (%) / S %: HepG2, flow cytometry
[6] = HepG2, MTT OD 570 nm, 1 ug/ml, 3 d, solvent not given
[7] = HepG2, MTT OD 570 nm, 5 ug/ml, 3 d, solvent not given
[8] = HepG2, MTT OD 570 nm, 10 ug/ml, 3 d, solvent not given
[9] = HepG2, MTT time gradient, 10 ug/ml, 1 d
[10] = HepG2, MTT time gradient, 10 ug/ml, 2 d
[11] = HepG2, MTT time gradient, 10 ug/ml, 3 d
[12] = HepG2, MTT time gradient, 10 ug/ml, 7 d
[13] = HepG2, MTT, 1 ug/ml, 3 d, solvent not given
[14] = HepG2, MTT, 5 ug/ml, 3 d, solvent not given
[15] = HepG2, MTT, 10 ug/ml, 3 d, solvent not given
[16] = HepG2, Table 5 repeat MTT, 10 ug/ml, 3 days, DMSO
[17] = A549, MTT OD 570 nm, 1 ug/ml, 3 d, solvent DMSO (D)
[18] = A549, MTT OD 570 nm, 5 ug/ml, 3 d, solvent DMSO (D)
[19] = A549, MTT OD 570 nm, 10 ug/ml, 3 d, solvent DMSO (D)
[20] = A549, MTT time gradient, 10 ug/ml, 1 d
[21] = A549, MTT time gradient, 10 ug/ml, 1 d, fraction
[22] = A549, MTT time gradient, 10 ug/ml, 2 d
[23] = A549, MTT time gradient, 10 ug/ml, 2 d, fraction
[24] = A549, MTT time gradient, 10 ug/ml, 3 d
[25] = A549, MTT time gradient, 10 ug/ml, 3 d, fraction
[26] = A549, MTT time gradient, 10 ug/ml, 7 d
[27] = A549, MTT time gradient, 10 ug/ml, 7 d, fraction
[28] = HepG2, Table 5 repeat MTT, 10 ug/ml, 3 days, ethanol

CC1=C(/C=C/C(C)=C/C=C/C(C)=C/C(=O)Nc2cccc(OC(F)(F)F)c2)C(C)(C)CCC1 [Example 6a-02, (3-trifluoromethoxyphenyl)-(all-trans)-3,7-dimethyl-9-(2,6,6-trimethyl-1-cyclohexen-1-yl)-2,4,6,8-nonatetraenoic acid amide]
OD Value (x ± s) (liver cancer HepG2 cells; [6]): 1.38 ± 0.62 | OD Value (x ± s) (liver cancer HepG2 cells; [7]): 1.16 ± 0.38 | OD Value (x ± s) (liver cancer HepG2 cells; [8]): 0.84 ± 0.31 | OD Value (x ± s) (liver cancer HepG2 cells; [9]): 1.60 ± 0.19 | Inhibition Rate (liver cancer HepG2 cells; [9]): 0.07 | OD Value (x ± s) (liver cancer HepG2 cells; [10]): 1.14 ± 0.09 | Inhibition Rate (liver cancer HepG2 cells; [10]): 0.32 | OD Value (x ± s) (liver cancer HepG2 cells; [11]): 0.81 ± 0.12 | Inhibition Rate (liver cancer HepG2 cells; [11]): 0.34 | OD Value (x ± s) (liver cancer HepG2 cells; [12]): 0.49 ± 0.32 | Inhibition Rate (liver cancer HepG2 cells; [12]): 0.63 | Inhibition Rate (liver cancer HepG2 cells; [13]): 0.18 | Inhibition Rate (liver cancer HepG2 cells; [14]): 0.31 | Inhibition Rate (liver cancer HepG2 cells; [15]): 0.50 | OD Value (x ± s) (liver cancer HepG2 cells; [16]): 1.125 ± 0.146 | Inhibition Rate (liver cancer HepG2 cells; [16]): 0.480* | OD Value (x ± s) (A549 lung cancer cells; [17]): 1.637 ± 0.146 and 1.614 ± 0.146 | OD Value (x ± s) (A549 lung cancer cells; [18]): 1.613 ± 0.120 and 1.580 ± 0.096 | OD Value (x ± s) (A549 lung cancer cells; [19]): 1.362 ± 0.077 and 1.498 ± 0.218 | OD Value (x ± s) (A549 lung cancer cells; [20]): 0.774 ± 0.030 | Inhibition Rate (A549 lung cancer cells; [21]): 0.156 | OD Value (x ± s) (A549 lung cancer cells; [22]): 1.065 ± 0.045 | Inhibition Rate (A549 lung cancer cells; [23]): 0.272 | OD Value (x ± s) (A549 lung cancer cells; [24]): 0.408 ± 0.028 | Inhibition Rate (A549 lung cancer cells; [25]): 0.561 | OD Value (x ± s) (A549 lung cancer cells; [26]): 0.666 ± 0.049 | Inhibition Rate (A549 lung cancer cells; [27]): 0.679 | Inhibition Rate (A549 lung cancer cells; A549, MTT, 1 ug/ml, 3 d, solvent DMSO (D), given as fraction): 0.123 and 0.135 | Inhibition Rate (A549 lung cancer cells; A549, MTT, 5 ug/ml, 3 d, solvent DMSO (D), given as fraction): 0.136 and 0.154 | Inhibition Rate (A549 lung cancer cells; A549, MTT, 10 ug/ml, 3 d, solvent DMSO (D), given as fraction): 0.270 and 0.197 | Apoptosis Rate (%) (A549 cells [1]): 9.79% | G0-G1 (%) (A549 cells [1]): 70.0% | G2-M (%) (A549 cells [1]): 1.71% | S % (A549 cells [1]): 19.0% | CEA (A549 cells [2]): 3.5 µg/L | AFP (HepG2 cells [3]; DMSO): 15.6 µg/L | γ-GT (HepG2 cells [4]; DMSO): 42.3 ± 2.0 U/L | Apoptosis Rate (%) (HepG2 cells [5]): 15.7* % | G0-G1 (%) (HepG2 cells [5]): 57.5% | G2-M (%) (HepG2 cells [5]): 2.61% | S % (HepG2 cells [5]): 25.4%

CC1=C(/C=C/C(C)=C/C=C/C(C)=C/C(=O)Oc2ccc(N)cc2C(F)(F)F)C(C)(C)CCC1 [Example 4a-02, (4-amino-2-trifluoromethylphenyl)-(all-trans)-3,7-dimethyl-9-(2,6,6-trimethyl-1-cyclohexen-1-yl)-2,4,6,8-nonatetraenoate]
OD Value (x ± s) (liver cancer HepG2 cells; [6]): 1.50 ± 0.24 | OD Value (x ± s) (liver cancer HepG2 cells; [7]): 1.32 ± 0.50 | OD Value (x ± s) (liver cancer HepG2 cells; [8]): 0.86 ± 0.13 | OD Value (x ± s) (liver cancer HepG2 cells; [9]): 1.53 ± 0.27 | Inhibition Rate (liver cancer HepG2 cells; [9]): 0.11 | OD Value (x ± s) (liver cancer HepG2 cells; [10]): 1.36 ± 0.13 | Inhibition Rate (liver cancer HepG2 cells; [10]): 0.20 | OD Value (x ± s) (liver cancer HepG2 cells; [11]): 0.74 ± 0.08 | Inhibition Rate (liver cancer HepG2 cells; [11]): 0.46 | OD Value (x ± s) (liver cancer HepG2 cells; [12]): 0.70 ± 0.05 | Inhibition Rate (liver cancer HepG2 cells; [12]): 0.48 | Inhibition Rate (liver cancer HepG2 cells; [13]): 0.11 | Inhibition Rate (liver cancer HepG2 cells; [14]): 0.22 | Inhibition Rate (liver cancer HepG2 cells; [15]): 0.49 | OD Value (x ± s) (liver cancer HepG2 cells; [28]): 1.409 ± 0.090 | Inhibition Rate (liver cancer HepG2 cells; [28]): 0.349* | OD Value (x ± s) (A549 lung cancer cells; [17]): 1.644 ± 0.272 and 2.020 ± 0.317 | OD Value (x ± s) (A549 lung cancer cells; [18]): 1.618 ± 0.087 and 1.979 ± 0.138 | OD Value (x ± s) (A549 lung cancer cells; [19]): 1.808 ± 0.143 | OD Value (x ± s) (A549 lung cancer cells; [20]): 0.815 ± 0.045 | Inhibition Rate (A549 lung cancer cells; [21]): 0.111 | OD Value (x ± s) (A549 lung cancer cells; [22]): 1.176 ± 0.021 | Inhibition Rate (A549 lung cancer cells; [23]): 0.196 | OD Value (x ± s) (A549 lung cancer cells; [24]): 0.720 ± 0.025 | Inhibition Rate (A549 lung cancer cells; [25]): 0.223 | OD Value (x ± s) (A549 lung cancer cells; [26]): 1.144 ± 0.150 | Inhibition Rate (A549 lung cancer cells; [27]): 0.448 | Apoptosis Rate (%) (A549 cells [1]): 23.9% | G0-G1 (%) (A549 cells [1]): 44.1% | G2-M (%) (A549 cells [1]): 1.90% | S % (A549 cells [1]): 29.4% | CEA (A549 cells [2]): 3.1 µg/L | effects on AFP secretory volume (statistics, in words) (HepG2 cells [3]; HepG2, compared with the control groups, P less than 0.05): meaningful in statistics | AFP (HepG2 cells [3]; ethanol): 10.4* ug/L | γ-GT (HepG2 cells [4]; ethanol): 32.6 ± 1.5 U/L | effect on the apoptosis of HepG2 cells (ranking in words) (HepG2 cells [5]; HepG2): most greatly effects on the apoptosis of HepG2 cells | Apoptosis Rate (%) (HepG2 cells [5]): 38.1* % | G0-G1 (%) (HepG2 cells [5]): 30.9% | G2-M (%) (HepG2 cells [5]): 3.20% | S % (HepG2 cells [5]): 28.5%
